Experimental data: patent publication US20250361233A1, “Compounds For Activating Serotonin Receptor” (PSYLO PTY LTD, priority 2023, published 2025)

Assays:
C57BL/6J mice = experiment: Biotelemetry and head-twitch response (HTR) experiments; type: in vivo, mice (C57BL/6J males); details: male C57BL/6 mice, SC, several doses (0.03 to 30 mg/kg)
Text: Mice (C57BL/6J males) were purchased from the Jackson Laboratory (Bar Harbor, ME, USA) at 5-6 weeks of age and allowed at least 1-2 weeks to acclimate to the NIDA, Intramural Research Program (IRP), animal research facility in Baltimore, MD, USA. The animal facility is fully accredited by the Association for the Assessment and Accreditation of Laboratory Animal Care, and all procedures were approved by the NIDA IRP Animal Care and Use Committee. Mice were initially group housed 3-5 per cage during acclimation and housed in a 12 h light-dark cycle throughout the study, with lights on at 0700 h. Food and water were available ad libitum except during testing. Cohorts of 20-24 mice were used for each test drug. The mice were subjected to experimental testing once every 1-2 weeks for 2-3 months to complete dose-effect curves and antagonist experiments. A minimum of 7 days between treatments was utilized to avoid any tolerance to effects of repeated drug administration. All drug doses represent the weight of the salt dissolved in 0.9% saline vehicle. Mice were tested first in dose-response studies to assess the effects of each compound at doses from 0.03 to 30 mg/kg s.c. and were subsequently tested in antagonist reversal studies utilizing pretreatment with M100907 and WAY100635. All experiments were conducted from 0900 to 1700 local time during the light phase, as sensitivity of rodents to other tryptamine psychedelics is diurnal, with maximal HTR observed in the middle of the light phase. […]
Subcutaneous Temperature Transponder Implants. […] Temperature was determined noninvasively using a handheld receiver that is sensitive to signals emitted from the implanted transponders.
Prior to each experiment, mouse body weight and temperature were recorded. […] In dose-response studies, after a brief 5 min acclimation, mouse body temperature was recorded for baseline measurement, mice received s.c. injection of test substance or vehicle, and animals were returned to the testing arena for 30 min. During the session, locomotor activity was monitored via photobeam tracking of movements in the horizontal plane to yield distance traveled in centimeter. HTR was monitored by the analysis of GoPro Hero Black 7 video recordings (120 frames per see and 960p resolution) using a commercially available software package from Clever Sys Inc. (Reston, VA, USA).82 Post-treatment body temperature values were also recorded, and temperature data are represented as change from pretreatment baseline.
In antagonist reversal experiments, mice received a s.c. injection of either receptor antagonists or vehicle and were returned to the testing chamber for 30 min. During this period, locomotor activity was monitored to examine the potential effects of antagonist treatment on general behavior or movement. […]

Male ICR mice = experiment: Acute restraint stress - tail suspension test (TST); type: in vivo; details: ICR mice after 5 h acute restraint stress, IP; P-3 3, 10 mg/kg; P-8 3, 10, 30 mg/kg; vs vehicle
Method: Male ICR mice (23±3 g) were purchased from BioLASCO (Taipei, Taiwan) at 4-5 weeks of age and allowed 5-7 days to acclimate to the animal research facility at Pharmacology Discovery Services (Taipei, Taiwan). Mice were housed in groups of 10 in a large cage (47×25×15 cm) on a 12-hour light cycle (lights on: 0700) and provided ad libitum food and water except during acute restraint stress and tail-suspension testing. Temperature was maintained at 20-24° C., and all rooms (colony and testing rooms) had similar lighting intensity. All aspects of this work including housing, experimentation, and animal disposal were performed in accordance with the “Guide for the Care and Use of Laboratory Animals: Eighth Edition” (The National Academies Press, Washington, DC, 2011) in a facility accredited by the Association for Assessment and Accreditation of Laboratory Animal Care. […]
Tail Suspension Test (TST) Procedure: Mice were individually suspended on the edge of a shelf, 58 cm above a tabletop, using adhesive tape placed approximately 1 cm from the tip of the tail, for a total duration of 7 minutes. Using a stopwatch, the experimenters blinded to treatment groups recorded the duration of immobility (defined as hanging passively and motionless) during the 5 minutes spanning from 2-7 minutes. The data from 0-2 minutes was not recorded. […]

SMILES	Head-twitch response (HTR) (C57BL/6J mice)	Tolerability (temperature, locomotor activity, HTR; FIGS. 2-5) (C57BL/6J mice)	Immobility time in tail suspension test (FIG. 6) (Male ICR mice)
COc1cnc2[nH]cc(CCN(C)C)c2c1 [Compound P-3, 2-(5-methoxy-1H-pyrrolo[2,3-b]pyridin-3-yl)-N,N-dimethylethan-1-amine]	not promoting increased head-twitch response	well-tolerated	decrease the immobility time of mice
COc1ccnc2[nH]cc(CCN(C)C)c12 [Compound P-4, 2-(4-methoxy-1H-pyrrolo[2,3-b]pyridin-3-yl)-N,N-dimethylethan-1-amine]	not promoting increased head-twitch response	well-tolerated	–
